Experimental data: patent US20060069132A1, “Azolecarboxamide herbicides” (priority 2004, published 2006)

Columns and labels:
velvetleaf = assay: Test A pre-/postemergence herbicide test; format: in vivo, Abutilon theophrasti
Method in brief: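 Visual injury rating on a 0–100 scale (0 no effect, 100 complete control) versus untreated controls, about ten days after treatment in greenhouse. Pre: directed soil spray onto seeded sandy loam. Post: spray to runoff on plants 2–10 cm tall at one- to two-leaf stage.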

Surinam grass = assay: Test C pre-/postemergence herbicide test; format: in vivo, Urochloa decumbens; conditions: for Surinam Grass plant response rating: 500 g ai/ha
Method in brief: (§1)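 Pre- and postemergence application, solvent/surfactant formulation; post at 1- to 4-leaf stage (2–18 cm). Greenhouse 12–14 d. Visual rating vs controls, 0 = no effect, 100 = complete control.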

corn = assay: Test C pre-/postemergence herbicide test; format: in vivo, Zea mays; conditions: for Corn plant response rating: 500 g ai/ha
Method in brief: as §1

giant foxtail = assay: Test C pre-/postemergence herbicide test; format: in vivo, Setaria faberi; conditions: for Foxtail, Giant plant response rating: 500 g ai/ha
Method in brief: as §1

kochia = assay: Test C pre-/postemergence herbicide test; format: in vivo, Kochia scoparia; conditions: for Kochia plant response rating: 500 g ai/ha
Method in brief: as §1

morningglory = assay: Test C pre-/postemergence herbicide test; format: in vivo, Ipomoea coccinea; design: key to Plant response rating, Morningglory: 0 = no effect, 100 = complete control; conditions: for Morningglory plant response rating: 500 g ai/ha
Method in brief: as §1

common ragweed = assay: Test C pre-/postemergence herbicide test; format: in vivo, Ambrosia elatior; design: key to Plant response rating, Ragweed: 0 = no effect, 100 = complete control; conditions: for Ragweed plant response rating: 500 g ai/ha
Method in brief: as §1

soybean = assay: Test C pre-/postemergence herbicide test; format: in vivo, Glycine max; conditions: for Soybean plant response rating: 500 g ai/ha
Method in brief: as §1

rice = assay: Test C flooded paddy test; format: in vivo, Oryza sativa
Method in brief: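 Postemergence sprays applied to plants 2 to 18 cm tall (1- to 4-leaf stage); paddy species grown to 2-leaf stage under flooding. After 12 to 14 days in greenhouse, visual rating versus untreated controls on 0–100 scale (0 no effect, 100 complete control).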

[1] = tested on: smallflower umbrella sedge; assay: Test C flooded paddy test; format: in vivo, Cyperus difformis
barnyardgrass = assay: Test C flooded paddy test; format: in vivo, Echinochloa crus-galli
Method in brief: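 After a postemergence application at 1 to 4 leaves (plants 2–18 cm high), or at 2 leaves for barnyardgrass in flooded paddy, plants stayed in the greenhouse for 12 to 14 days. Damage was then judged visually relative to control plants, with 100 indicating complete control.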

[2] = Postemergence, 500 g ai/ha, 0 to 100 scale, 0 no effect, 100 complete control
[3] = Postemergence, 2000 g ai/ha, 0 to 100 scale, 0 no effect, 100 complete control
[4] = Preemergence, 2000 g ai/ha, visual rating, 0 to 100 scale (0 no effect, 100 complete control)
[5] = preemergence, 500 g ai/ha, visual injury, 0 to 100 scale (0 no effect, 100 complete control)
[6] = 125 g ai/ha, scale 0 (no effect) to 100 (complete control), visual, 12 to 14 days, preemergence
[7] = Postemergence, 250 g ai/ha, scale 0 to 100, 0 no effect, 100 complete control
[8] = Preemergence, scale 0 to 100, 0 no effect, 100 complete control
[9] = postemergence, 125 g ai/ha, scale 0 to 100
[10] = postemergence, 62 g ai/ha, scale 0 to 100
[11] = 250 g ai/ha, scale 0 to 100 (0 no effect, 100 complete control), visual, 12 to 14 days, preemergence
[12] = 62 g ai/ha, scale 0 to 100 (0 no effect, 100 complete control)
[13] = 125 g ai/ha, scale 0 to 100 (0 no effect, 100 complete control)
[14] = 62 g ai/ha, preemergence, scale 0 to 100
[15] = 250 g ai/ha, scale 0-100, preemergence
[16] = 250 g ai/ha, scale of 0 to 100, 0 is no effect, 100 is complete control
[17] = 500 g ai/ha, visual rating after 12 to 14 days, scale 0 to 100 (0 no effect, 100 complete control)

What does the source list for `C#CCNC(=O)c1cccc(NC(=O)c2cc(C(C)(C)C)nn2CC)n1` [Compound 147]?
Velvetleaf plant response rating (velvetleaf; [2]): 30; Plant response rating, Velvetleaf (velvetleaf; [3]): 50; Velvetleaf plant response rating (velvetleaf; [4]): 85; Velvetleaf plant response rating (velvetleaf; [5]): 25; Plant response rating (0 = no effect, 100 = complete control), Surinam Grass (Surinam grass; 62 g ai/ha, preemergence): 0; Plant response rating, Surinam Grass (Surinam grass; [6]): 10; Surinam Grass plant response rating (Surinam grass; Postemergence, scale 0 to 100): 60; Plant response rating, Surinam Grass (Surinam grass; [7]): 30; Surinam Grass plant response rating (Surinam grass; [8]): 60; Plant response rating, Surinam Grass (Surinam grass; [9]): 0; Plant response rating, Surinam Grass (Surinam grass; [10]): 0; Plant response rating (0 = no effect, 100 = complete control), Corn (corn; 62 g ai/ha, preemergence): 0; Plant response rating, Corn (corn; [6]): 0; Plant response rating, Corn (corn; [11]): 0; Corn plant response rating (corn; Postemergence, scale 0 to 100): 15; Plant response rating, Corn (corn; [7]): 10; Corn plant response rating (corn; [8]): 60; Plant response rating, Corn (corn; [9]): 5; Plant response rating, Corn (corn; [10]): 0; Plant response rating (0 = no effect, 100 = complete control), Foxtail, Giant (giant foxtail; 62 g ai/ha, preemergence): 0; Plant response rating, Foxtail, Giant (giant foxtail; [6]): 0; Plant response rating, Foxtail, Giant (giant foxtail; [11]): 30; Foxtail, Giant plant response rating (giant foxtail; Postemergence, scale 0 to 100): 45; Plant response rating, Foxtail, Giant (giant foxtail; [7]): 0; Foxtail, Giant plant response rating (giant foxtail; [8]): 100; Plant response rating, Foxtail, Giant (giant foxtail; [9]): 0; Plant response rating, Foxtail, Giant (giant foxtail; [10]): 0; Plant response rating, Kochia (kochia; [6]): 40; Kochia plant response rating (kochia; Postemergence, scale 0 to 100): 80; Plant response rating, Kochia (kochia; [7]): 50; Kochia plant response rating (kochia; [8]): 100; Plant response rating, Kochia (kochia; [9]): 10; Plant response rating, Kochia (kochia; [10]): 5; Plant response rating (0 = no effect, 100 = complete control), Morningglory (morningglory; 62 g ai/ha, preemergence): 0; Plant response rating, Morningglory (morningglory; [6]): 0; Morningglory plant response rating (morningglory; Postemergence, scale 0 to 100): 0; Plant response rating, Morningglory (morningglory; [7]): 0; Morningglory plant response rating (morningglory; [8]): 0; Plant response rating, Morningglory (morningglory; [9]): 0; Plant response rating, Morningglory (morningglory; [10]): 0; Plant response rating (0 = no effect, 100 = complete control), Ragweed (common ragweed; 62 g ai/ha, preemergence): 0; Plant response rating, Ragweed (common ragweed; [6]): 0; Ragweed plant response rating (common ragweed; Postemergence, scale 0 to 100): 10; Plant response rating, Ragweed (common ragweed; [7]): 10; Ragweed plant response rating (common ragweed; [8]): 70; Plant response rating, Ragweed (common ragweed; [9]): 0; Plant response rating, Ragweed (common ragweed; [10]): 0; Plant response rating (0 = no effect, 100 = complete control), Soybean (soybean; 62 g ai/ha, preemergence): 0; Plant response rating, Soybean (soybean; [6]): 0; Soybean plant response rating (soybean; Postemergence, scale 0 to 100): 70; Plant response rating, Soybean (soybean; [7]): 40; Soybean plant response rating (soybean; [8]): 5; Plant response rating, Soybean (soybean; [9]): 35; Plant response rating, Soybean (soybean; [10]): 10; Rice plant response rating (rice; 16 g ai/ha, scale 0 to 100): 0; Rice plant response rating (rice; 31 g ai/ha, scale 0 to 100): 0; Rice plant response rating (rice; [12]): 0; Rice plant response rating (rice; [13]): 0; Sedge, Umbrella plant response rating ([1]; 16 g ai/ha, scale 0 to 100): 0; Sedge, Umbrella plant response rating ([1]; 31 g ai/ha, scale 0 to 100): 20; Sedge, Umbrella plant response rating [1, 12]: 30; Sedge, Umbrella plant response rating [1, 13]: 50; Barnyardgrass plant response rating (barnyardgrass; 16 g ai/ha, scale 0 to 100): 0; Barnyardgrass plant response rating (barnyardgrass; 31 g ai/ha, scale 0 to 100): 0; Barnyardgrass plant response rating (barnyardgrass; [12]): 0; Barnyardgrass plant response rating (barnyardgrass; 125 g ai/ha, scale of 0 to 100, 0 is no effect, 100 is complete control): 0

How did the “Velvetleaf plant response rating” value (velvetleaf; [2]) turn out when `CCNC(=O)c1ccc(F)c(NC(=O)c2cc(C3(C)CC3)nn2CC)c1` [Compound 300] was run?
Its value is 60.

And the “Plant response rating, Velvetleaf” value (velvetleaf; [3])?
Its value is 80.

And the “Velvetleaf plant response rating” value (velvetleaf; [4])?
The value was 100.

What about the “Velvetleaf plant response rating” value (velvetleaf; [5]) of the same compound?
The value was 85.

And the “Plant response rating, Surinam Grass” value (Surinam grass; [14])?
Its value is 30.

And the “Plant response rating, Surinam Grass” value (Surinam grass; [15])?
Its value is 100.

What about the “Plant response rating, Corn” value (corn; [14]) of the same compound?
The value was 30.

And the “Plant response rating, Corn” value (corn; [6])?
Its value is 30.

And the “Plant response rating, Corn” value (corn; [15])?
The value was 35.

What about the “Plant response rating, Foxtail, Giant” value (giant foxtail; [14]) of the same compound?
Its value is 30.

And the “Plant response rating, Foxtail, Giant” value (giant foxtail; [6])?
The value was 65.

And the “Plant response rating, Foxtail, Giant” value (giant foxtail; [15])?
Its value is 100.

And the “Plant response rating, Kochia” value (kochia; [14])?
Its value is 60.

What about the “Plant response rating, Kochia” value (kochia; [6]) of the same compound?
The value was 100.

What about the “Plant response rating, Kochia” value (kochia; [15]) of the same compound?
Its value is 100.

What about the “Plant response rating, Morningglory” value (morningglory; [14]) of the same compound?
The value was 5.

What about the “Plant response rating, Morningglory” value (morningglory; [6]) of the same compound?
Its value is 40.

And the “Plant response rating, Morningglory” value (morningglory; [15])?
Its value is 40.

And the “Plant response rating, Ragweed” value (common ragweed; [14])?
The value was 5.

What about the “Plant response rating, Ragweed” value (common ragweed; [15]) of the same compound?
Its value is 10.

What about the “Plant response rating, Soybean” value (soybean; [14]) of the same compound?
The value was 0.

And the “Plant response rating, Soybean” value (soybean; [15])?
Its value is 70.

And the “Rice plant response rating” value (rice; 62 g ai/ha, scale 0 to 100)?
The value was 40.

And the “Rice plant response rating” value (rice; [13])?
Its value is 55.

And the “Rice plant response rating” value (rice; [16])?
Its value is 70.

What about the “Plant response rating, Rice” value (rice; [17]) of the same compound?
The value was 75.

What about the “Sedge, Umbrella plant response rating” value ([1]; 62 g ai/ha, scale 0 to 100) of the same compound?
Its value is 80.

And the “Sedge, Umbrella plant response rating” value [1, 13]?
The value was 80.

And the “Sedge, Umbrella plant response rating” value [1, 16]?
The value was 85.

What about the “Plant response rating, Sedge, Umbrella” value [1, 17] of the same compound?
The value was 90.

What about the “Barnyardgrass plant response rating” value (barnyardgrass; [12]) of the same compound?
The value was 35.

And the “Barnyardgrass plant response rating” value (barnyardgrass; [13])?
The value was 50.

What about the “Barnyardgrass plant response rating” value (barnyardgrass; [16]) of the same compound?
Its value is 90.

And the “Plant response rating, Barnyardgrass” value (barnyardgrass; [17])?
Its value is 95.
